{
  "source": "patent US8741905B2",
  "about": "“Compounds and methods for treating autoimmune diseases” (The Broad Institute, Inc., priority 2010, dated 2014)",
  "key": {"INS-1E cells [1]": {"tested_on": "INS-1E cells", "experiment": "Caspase-3 activity assay (Caspase-Glo 3/7) in cytokine-treated INS-1E cells", "assay_type": "cell-based, rat", "settings": "cytokines", "procedure": "INS-1E cells were seeded at 5,000 cells per well in white optical 384-well plates and treated as described for highthroughput screening. After treatment with cytokines and compounds for 48 h, medium was removed and 20 μL Caspase-Glo 3/7 reagent was added. Luminescence was measured after 2 h of incubation using an EnVision plate reader."}, "INS-1E cells [2]": {"tested_on": "INS-1E cells", "experiment": "Glucose-stimulated insulin secretion in cytokine-treated INS-1E cells", "assay_type": "cell-based, rat", "settings": "cytokines", "procedure": "INS-1E cells were seeded in 96-well plates at 20,000 cells per well and incubated for 48 h in 100 μL of fresh RPMI containing 1% FBS and the cytokine cocktail, in the presence or absence of compounds. Cells were washed and incubated for 2 h in KRBH (135 mM NaCl, 3.6 mM KCl, 5 mM NaHCO3, 0.5 mM NaH2PO4, 0.5 mM MgCl2, 1.5 mM CaCl2, 10 mM HEPES, pH 7.4, 0.1% BSA) without glucose. Cells were subsequently incubated with KRBH containing 2 or 15 mM glucose for 1 h. The supernatant was taken for measurement of released insulin, and 100 μL of acidified ethanol was added to each well for extraction and measurement of cellular insulin content. Insulin was measured with a rat insulin ELISA kit (Alpco)."}, "dissociated human islets": {"tested_on": "dissociated human islets", "experiment": "Cytokine-induced caspase-3/7 activity in dissociated human islets", "assay_type": "cell-based", "settings": "six-day cytokine treatment, co-incubation", "description": "Without being bound by any theory the following postulated to relate the activity of the compounds of Formula I in autoimmune diseases. Human beta-cell apoptosis involves a complex set of signaling cascades initiated by IL-1β, IFN-γ, and TNF-α. IL-1β and TNF-α induce NF-κB expression, while downstream activation of gene expression is thought to occur through nitric oxide (NO) signaling, which both increases the endoplasmic reticulum stress-response pathway and decreases beta-cell function; this pathway works together with IFN-γ-induced STAT-1 signaling to effect beta-cell death. These effects of cytokines are beta cell-specific, and small-molecule suppressors should have little to no effect on other cell types in the pancreas. Small molecules that increase beta-cell survival in the presence of cytokines could be of potential clinical benefit to early-stage type 1 diabetic patients. A number of studies have described small molecules with protective effects in the presence of cytokines; most of these were discovered because of their nonspecific antioxidant or anti-inflammatory effects. […] Because of the use of dissociated islets and a whole-well readout of caspase activity, it cannot be certain that only beta cells are undergoing apoptosis; however, based on previous results in the literature, beta cells may constitute the majority of the apoptotic effect."}, "STAT1 [3]": {"tested_on": "STAT1", "experiment": "GAS reporter assay (cytokine-induced STAT1 reporter gene activity)", "assay_type": "cell-based", "settings": "FIG. 7", "procedure": "INS-1E cells were transfected with plasmids (GAS reporter assay kit) using DharmaFECT reagent according to the manufacturer's protocol (SABiosciences) in white optical 384-well plates (Corning Life Sciences). After overnight incubation, medium was removed and 50 μL RPMI containing the treated compound, 1% FBS and a combination of cytokines (10 ng/mL IL-1β, 50 ng/mL IFN-γ, 25 ng/mL TNF-α) was added to every well. After treatment with cytokines and compounds for 18 hr, luminescence was measure using Dual-Glo according to the manufacturer's protocol (Promega)."}, "STAT1 [4]": {"tested_on": "STAT1", "experiment": "Nuclear STAT1 translocation", "assay_type": "cell-based", "settings": "FIG. 9"}, "Usp9x [5]": {"molecular_target": "T1, Usp9x (Homo sapiens, UniProt Q93008)", "T1 construct": "made in house", "T1 sequence (Q93008 whole entry)": "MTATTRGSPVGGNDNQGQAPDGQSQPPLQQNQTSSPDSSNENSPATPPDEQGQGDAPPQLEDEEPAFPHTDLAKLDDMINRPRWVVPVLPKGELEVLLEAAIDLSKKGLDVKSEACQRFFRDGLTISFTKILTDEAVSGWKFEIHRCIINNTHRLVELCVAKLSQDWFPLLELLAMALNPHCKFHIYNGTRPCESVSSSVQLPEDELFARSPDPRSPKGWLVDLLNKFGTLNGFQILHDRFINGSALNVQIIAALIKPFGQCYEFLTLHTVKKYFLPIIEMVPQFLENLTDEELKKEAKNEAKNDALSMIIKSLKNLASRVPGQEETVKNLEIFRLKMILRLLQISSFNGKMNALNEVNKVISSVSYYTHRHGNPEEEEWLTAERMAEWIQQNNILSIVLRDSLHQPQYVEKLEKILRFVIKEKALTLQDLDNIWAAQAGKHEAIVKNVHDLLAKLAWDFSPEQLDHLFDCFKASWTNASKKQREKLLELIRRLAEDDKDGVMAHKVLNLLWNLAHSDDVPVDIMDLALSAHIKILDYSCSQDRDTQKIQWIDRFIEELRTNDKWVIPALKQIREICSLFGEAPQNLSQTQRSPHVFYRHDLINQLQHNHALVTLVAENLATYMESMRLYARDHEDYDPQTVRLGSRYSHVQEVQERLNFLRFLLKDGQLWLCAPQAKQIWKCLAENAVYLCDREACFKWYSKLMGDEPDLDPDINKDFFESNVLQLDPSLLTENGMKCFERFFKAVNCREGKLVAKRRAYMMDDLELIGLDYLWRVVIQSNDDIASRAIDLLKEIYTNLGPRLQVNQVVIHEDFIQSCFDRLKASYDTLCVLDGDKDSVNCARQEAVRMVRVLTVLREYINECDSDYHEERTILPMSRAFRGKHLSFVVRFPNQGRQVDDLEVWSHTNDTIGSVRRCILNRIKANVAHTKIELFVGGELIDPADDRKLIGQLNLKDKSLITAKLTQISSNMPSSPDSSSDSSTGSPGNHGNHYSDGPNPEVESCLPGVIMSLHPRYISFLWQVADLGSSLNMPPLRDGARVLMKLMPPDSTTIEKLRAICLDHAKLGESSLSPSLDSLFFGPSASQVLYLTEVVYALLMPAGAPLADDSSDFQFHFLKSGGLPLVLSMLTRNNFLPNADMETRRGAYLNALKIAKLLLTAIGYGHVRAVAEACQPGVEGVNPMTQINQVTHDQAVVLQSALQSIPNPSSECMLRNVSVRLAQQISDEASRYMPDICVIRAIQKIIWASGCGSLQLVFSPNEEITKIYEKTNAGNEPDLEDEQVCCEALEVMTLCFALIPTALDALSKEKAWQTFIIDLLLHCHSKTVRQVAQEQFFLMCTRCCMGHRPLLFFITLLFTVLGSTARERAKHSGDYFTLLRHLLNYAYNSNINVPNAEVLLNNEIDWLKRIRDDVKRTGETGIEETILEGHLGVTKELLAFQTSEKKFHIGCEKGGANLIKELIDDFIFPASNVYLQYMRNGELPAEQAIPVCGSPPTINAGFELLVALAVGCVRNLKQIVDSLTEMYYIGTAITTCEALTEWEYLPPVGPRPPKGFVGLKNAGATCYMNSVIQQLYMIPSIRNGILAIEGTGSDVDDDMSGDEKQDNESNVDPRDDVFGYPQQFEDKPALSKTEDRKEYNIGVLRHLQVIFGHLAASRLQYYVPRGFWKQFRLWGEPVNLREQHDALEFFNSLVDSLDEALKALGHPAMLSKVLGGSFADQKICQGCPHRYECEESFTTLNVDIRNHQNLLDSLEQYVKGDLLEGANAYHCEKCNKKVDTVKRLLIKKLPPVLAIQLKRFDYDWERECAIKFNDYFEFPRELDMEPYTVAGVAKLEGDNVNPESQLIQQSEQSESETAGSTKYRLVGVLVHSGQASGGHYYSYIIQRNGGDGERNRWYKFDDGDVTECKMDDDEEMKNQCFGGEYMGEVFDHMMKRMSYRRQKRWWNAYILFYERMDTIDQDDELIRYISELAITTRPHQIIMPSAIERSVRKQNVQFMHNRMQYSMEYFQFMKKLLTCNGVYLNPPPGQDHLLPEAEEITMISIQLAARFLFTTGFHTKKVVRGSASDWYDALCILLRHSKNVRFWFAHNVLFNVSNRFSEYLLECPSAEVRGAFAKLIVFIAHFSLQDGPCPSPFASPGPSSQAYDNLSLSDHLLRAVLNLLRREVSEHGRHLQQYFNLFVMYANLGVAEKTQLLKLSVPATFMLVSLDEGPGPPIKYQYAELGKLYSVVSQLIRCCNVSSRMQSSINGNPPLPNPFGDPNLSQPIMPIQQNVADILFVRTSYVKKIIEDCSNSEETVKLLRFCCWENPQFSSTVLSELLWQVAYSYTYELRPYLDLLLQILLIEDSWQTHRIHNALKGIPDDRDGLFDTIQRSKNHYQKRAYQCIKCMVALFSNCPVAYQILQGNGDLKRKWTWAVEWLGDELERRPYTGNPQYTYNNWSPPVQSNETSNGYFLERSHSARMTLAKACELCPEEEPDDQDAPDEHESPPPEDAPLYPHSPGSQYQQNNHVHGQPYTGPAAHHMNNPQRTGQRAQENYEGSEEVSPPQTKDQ", "experiment": "Usp9x thermal shift assay", "assay_type": "binding", "settings": "FIG. 14, purified Usp9x, compared with WP1130", "procedure": "For each purification, fifty 25-cm dishes of confluent HEK-293 cell lines stably expressing wild-type USP-9X (provided by Dr. Dario Alessi, University of Dundee, Scotland) were employed. Cells were washed twice with ice-cold PBS and lysed in 1 ml of ice-cold lysis buffer. The combined lysates were centrifuged at 26000 g for 30 min at 4° C. and the supernatant incubated with 0.2 ml of rabbit IgG-agarose beads (Sigma) for 1 h at 4° C. The IgG-agarose was washed extensively with lysis buffer containing 0.15 M NaCl, then with several washes in buffer B prior to incubation with 0.250 ml of buffer B containing 0.1 mg of TEV protease (Invitrogen). After 3 h at 4° C.˜70-90% of the TAP-tagged protein had been cleaved from the IgG-agarose and the eluted protein was incubated with 0.1 ml of rabbit calmodulin-Sepharose (Roche) equilibrated in buffer C. After 1 h at 4° C., the calmodulin-Sepharose was washed with buffer C. To elute the protein, the calmodulin-Sepharose was then incubated with 0.1 ml of buffer D for 10 min at 4° C. The eluate was removed from the beads and the elution repeated two or three times. To remove the NaCl present in the buffer containing the eluate protein, the eluates were centrifuged at 1500 g for 1 min at 4° C. in protein desalting spin columns. […]"}, "Usp9x [6]": {"tested_on": "Usp9x", "experiment": "Low-throughput compound pull-down and Western blot", "assay_type": "binding", "settings": "FIG. 13, Western blot"}},
  "data": [
    {"smiles": "C[C@@H]1CN([C@@H](C)CO)C(=O)c2cccc(NC(=O)Nc3cccc4ccccc34)c2O[C@H]1CN(C)S(=O)(=O)c1ccc2c(c1)OCCO2", "note": "[Compound 21A, N-(((2R,3R)-5-((S)-1-Hydroxypropan-2-yl)-3-methyl-10-(3-(naphthalen-1-yl)ureido)-6-oxo-3,4,5,6-tetrahydro-2H-benzo[b][1,5]oxazocin-2-yl)methyl)-N-methyl-2,3-dihydrobenzo-[b][1,4]dioxine-6-sulfonamide]", "values": [
      {"measurement": "EC50", "setting": "INS-1E cells [1]; Rattus norvegicus, 48 h, Caspase-Glo 3/7", "result": "> 10", "unit": "µM"},
      {"measurement": "caspase-3/7 activity in INS-1E cells", "setting": "INS-1E cells [1]", "result": "decreased caspase-3/7 activity"},
      {"measurement": "glucose-stimulated insulin secretion (GSIS)", "setting": "INS-1E cells [2]", "result": "restored glucose-stimulated insulin secretion (GSIS), showing improved beta-cell function, to nearly normal levels"},
      {"measurement": "cytokine-induced caspase-3/7 activity (induced by approximately 60%)", "setting": "dissociated human islets", "result": "abolished"},
      {"measurement": "cytokine-induced STAT1 reporter gene activity", "setting": "STAT1 [3]", "result": "inhibits cytokine-induced STAT1 reporter gene activity"},
      {"measurement": "nuclear STAT1 translocation", "setting": "STAT1 [4]", "result": "Inhibition of nuclear STAT1 translocation"},
      {"measurement": "Usp9x thermal shift", "setting": "Usp9x [5]", "result": "suggests binding"},
      {"measurement": "protein isolated by compound pull-down", "setting": "Usp9x [6]", "result": "Usp9x isolated"}
    ]}
  ]
}
